Results reported in ChEMBL document CHEMBL1150977, “A quantitative analysis of kinase inhibitor selectivity” (Nat Biotechnol, 2008).

Experiments:
Ephrin type-A receptor 2 = Ephrin type-A receptor 2 (Homo sapiens, UniProt P29317)
[1] = biological target: Mitogen-activated protein kinase 1 (Homo sapiens, UniProt P28482)
[2] = biological target: Citron Rho-interacting kinase (Homo sapiens, UniProt O14578)
[3] = biological target: T1, Serine/threonine-protein kinase D1 (Homo sapiens, UniProt Q15139)
T1 sequence (Q15139 whole entry): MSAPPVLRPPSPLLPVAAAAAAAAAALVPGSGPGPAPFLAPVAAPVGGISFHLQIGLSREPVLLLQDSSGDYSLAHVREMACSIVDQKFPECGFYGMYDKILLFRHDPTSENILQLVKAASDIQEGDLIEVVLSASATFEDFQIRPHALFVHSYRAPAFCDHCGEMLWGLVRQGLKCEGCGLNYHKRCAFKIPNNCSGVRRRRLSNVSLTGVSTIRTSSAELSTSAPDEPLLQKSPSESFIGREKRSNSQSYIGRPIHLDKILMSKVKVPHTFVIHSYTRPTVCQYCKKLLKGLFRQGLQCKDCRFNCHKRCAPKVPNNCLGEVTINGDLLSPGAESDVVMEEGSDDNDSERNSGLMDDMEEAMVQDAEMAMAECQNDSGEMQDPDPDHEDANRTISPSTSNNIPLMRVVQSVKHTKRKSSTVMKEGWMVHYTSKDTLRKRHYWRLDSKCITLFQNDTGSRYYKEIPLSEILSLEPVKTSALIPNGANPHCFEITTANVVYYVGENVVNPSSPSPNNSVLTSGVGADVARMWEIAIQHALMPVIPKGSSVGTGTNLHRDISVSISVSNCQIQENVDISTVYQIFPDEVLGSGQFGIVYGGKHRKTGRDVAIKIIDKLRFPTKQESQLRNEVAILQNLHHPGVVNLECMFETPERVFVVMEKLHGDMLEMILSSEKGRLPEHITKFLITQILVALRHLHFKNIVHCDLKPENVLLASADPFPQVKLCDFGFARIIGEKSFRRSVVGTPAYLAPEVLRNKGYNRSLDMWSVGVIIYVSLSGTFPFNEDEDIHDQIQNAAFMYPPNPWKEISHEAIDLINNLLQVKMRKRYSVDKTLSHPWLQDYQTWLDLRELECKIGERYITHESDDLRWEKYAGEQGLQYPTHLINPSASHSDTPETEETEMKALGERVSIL

[4] = biological target: T2, Tyrosine-protein kinase Tec (Homo sapiens, UniProt P42680)
T2 sequence (P42680 whole entry): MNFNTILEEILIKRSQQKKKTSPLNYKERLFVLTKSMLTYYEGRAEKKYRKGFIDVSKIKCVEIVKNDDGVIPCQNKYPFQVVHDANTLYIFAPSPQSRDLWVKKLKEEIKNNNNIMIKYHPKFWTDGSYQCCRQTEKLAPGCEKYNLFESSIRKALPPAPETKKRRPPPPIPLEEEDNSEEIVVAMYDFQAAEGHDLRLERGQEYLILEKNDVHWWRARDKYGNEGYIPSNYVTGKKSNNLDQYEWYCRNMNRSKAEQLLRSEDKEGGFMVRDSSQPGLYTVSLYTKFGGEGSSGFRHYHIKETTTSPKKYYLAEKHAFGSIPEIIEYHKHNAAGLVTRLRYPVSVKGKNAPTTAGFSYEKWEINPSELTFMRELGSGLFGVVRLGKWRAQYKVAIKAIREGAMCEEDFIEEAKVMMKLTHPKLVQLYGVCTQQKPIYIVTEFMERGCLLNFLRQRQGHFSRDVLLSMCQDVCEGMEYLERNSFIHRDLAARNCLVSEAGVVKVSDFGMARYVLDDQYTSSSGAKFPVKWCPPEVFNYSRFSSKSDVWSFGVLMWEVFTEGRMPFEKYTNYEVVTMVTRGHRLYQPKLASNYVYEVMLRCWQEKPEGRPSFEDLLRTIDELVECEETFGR

[5] = biological target: T3, Tyrosine-protein kinase receptor TYRO3 (Homo sapiens, UniProt Q06418)
T3 sequence (Q06418 whole entry): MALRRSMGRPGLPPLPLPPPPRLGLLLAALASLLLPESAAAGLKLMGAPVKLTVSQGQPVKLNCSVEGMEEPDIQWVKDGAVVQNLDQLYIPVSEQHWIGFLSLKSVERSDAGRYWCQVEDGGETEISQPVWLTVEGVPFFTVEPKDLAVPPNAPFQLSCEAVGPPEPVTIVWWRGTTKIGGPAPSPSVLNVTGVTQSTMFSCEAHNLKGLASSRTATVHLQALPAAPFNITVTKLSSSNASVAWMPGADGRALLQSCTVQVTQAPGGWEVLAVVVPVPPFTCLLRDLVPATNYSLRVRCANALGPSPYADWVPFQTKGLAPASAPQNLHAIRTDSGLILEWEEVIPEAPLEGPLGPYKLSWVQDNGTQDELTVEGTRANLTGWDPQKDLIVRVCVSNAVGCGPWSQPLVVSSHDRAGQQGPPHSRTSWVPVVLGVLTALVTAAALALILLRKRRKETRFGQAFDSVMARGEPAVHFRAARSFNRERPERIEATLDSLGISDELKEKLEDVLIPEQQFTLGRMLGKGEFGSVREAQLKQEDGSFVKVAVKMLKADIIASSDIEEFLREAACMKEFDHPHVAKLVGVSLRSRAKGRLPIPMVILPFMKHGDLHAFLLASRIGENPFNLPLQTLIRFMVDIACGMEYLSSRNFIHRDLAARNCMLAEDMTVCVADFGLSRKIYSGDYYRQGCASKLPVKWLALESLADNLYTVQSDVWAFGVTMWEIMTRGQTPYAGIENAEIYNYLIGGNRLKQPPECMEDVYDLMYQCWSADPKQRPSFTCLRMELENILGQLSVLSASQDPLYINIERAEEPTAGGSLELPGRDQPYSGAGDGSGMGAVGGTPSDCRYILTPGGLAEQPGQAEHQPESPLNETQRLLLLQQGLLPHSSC

Sequence of Mitogen-activated protein kinase 1 (P28482 whole entry): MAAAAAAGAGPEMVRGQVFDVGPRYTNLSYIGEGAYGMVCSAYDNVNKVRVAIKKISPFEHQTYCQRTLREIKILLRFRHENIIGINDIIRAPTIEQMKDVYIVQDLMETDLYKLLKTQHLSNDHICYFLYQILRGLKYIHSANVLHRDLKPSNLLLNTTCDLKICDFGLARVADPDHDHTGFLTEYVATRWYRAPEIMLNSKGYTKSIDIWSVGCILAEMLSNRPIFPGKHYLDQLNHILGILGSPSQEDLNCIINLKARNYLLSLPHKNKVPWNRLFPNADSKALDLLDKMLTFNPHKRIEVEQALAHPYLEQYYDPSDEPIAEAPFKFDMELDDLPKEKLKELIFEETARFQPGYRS
Sequence of Citron Rho-interacting kinase (O14578 whole entry): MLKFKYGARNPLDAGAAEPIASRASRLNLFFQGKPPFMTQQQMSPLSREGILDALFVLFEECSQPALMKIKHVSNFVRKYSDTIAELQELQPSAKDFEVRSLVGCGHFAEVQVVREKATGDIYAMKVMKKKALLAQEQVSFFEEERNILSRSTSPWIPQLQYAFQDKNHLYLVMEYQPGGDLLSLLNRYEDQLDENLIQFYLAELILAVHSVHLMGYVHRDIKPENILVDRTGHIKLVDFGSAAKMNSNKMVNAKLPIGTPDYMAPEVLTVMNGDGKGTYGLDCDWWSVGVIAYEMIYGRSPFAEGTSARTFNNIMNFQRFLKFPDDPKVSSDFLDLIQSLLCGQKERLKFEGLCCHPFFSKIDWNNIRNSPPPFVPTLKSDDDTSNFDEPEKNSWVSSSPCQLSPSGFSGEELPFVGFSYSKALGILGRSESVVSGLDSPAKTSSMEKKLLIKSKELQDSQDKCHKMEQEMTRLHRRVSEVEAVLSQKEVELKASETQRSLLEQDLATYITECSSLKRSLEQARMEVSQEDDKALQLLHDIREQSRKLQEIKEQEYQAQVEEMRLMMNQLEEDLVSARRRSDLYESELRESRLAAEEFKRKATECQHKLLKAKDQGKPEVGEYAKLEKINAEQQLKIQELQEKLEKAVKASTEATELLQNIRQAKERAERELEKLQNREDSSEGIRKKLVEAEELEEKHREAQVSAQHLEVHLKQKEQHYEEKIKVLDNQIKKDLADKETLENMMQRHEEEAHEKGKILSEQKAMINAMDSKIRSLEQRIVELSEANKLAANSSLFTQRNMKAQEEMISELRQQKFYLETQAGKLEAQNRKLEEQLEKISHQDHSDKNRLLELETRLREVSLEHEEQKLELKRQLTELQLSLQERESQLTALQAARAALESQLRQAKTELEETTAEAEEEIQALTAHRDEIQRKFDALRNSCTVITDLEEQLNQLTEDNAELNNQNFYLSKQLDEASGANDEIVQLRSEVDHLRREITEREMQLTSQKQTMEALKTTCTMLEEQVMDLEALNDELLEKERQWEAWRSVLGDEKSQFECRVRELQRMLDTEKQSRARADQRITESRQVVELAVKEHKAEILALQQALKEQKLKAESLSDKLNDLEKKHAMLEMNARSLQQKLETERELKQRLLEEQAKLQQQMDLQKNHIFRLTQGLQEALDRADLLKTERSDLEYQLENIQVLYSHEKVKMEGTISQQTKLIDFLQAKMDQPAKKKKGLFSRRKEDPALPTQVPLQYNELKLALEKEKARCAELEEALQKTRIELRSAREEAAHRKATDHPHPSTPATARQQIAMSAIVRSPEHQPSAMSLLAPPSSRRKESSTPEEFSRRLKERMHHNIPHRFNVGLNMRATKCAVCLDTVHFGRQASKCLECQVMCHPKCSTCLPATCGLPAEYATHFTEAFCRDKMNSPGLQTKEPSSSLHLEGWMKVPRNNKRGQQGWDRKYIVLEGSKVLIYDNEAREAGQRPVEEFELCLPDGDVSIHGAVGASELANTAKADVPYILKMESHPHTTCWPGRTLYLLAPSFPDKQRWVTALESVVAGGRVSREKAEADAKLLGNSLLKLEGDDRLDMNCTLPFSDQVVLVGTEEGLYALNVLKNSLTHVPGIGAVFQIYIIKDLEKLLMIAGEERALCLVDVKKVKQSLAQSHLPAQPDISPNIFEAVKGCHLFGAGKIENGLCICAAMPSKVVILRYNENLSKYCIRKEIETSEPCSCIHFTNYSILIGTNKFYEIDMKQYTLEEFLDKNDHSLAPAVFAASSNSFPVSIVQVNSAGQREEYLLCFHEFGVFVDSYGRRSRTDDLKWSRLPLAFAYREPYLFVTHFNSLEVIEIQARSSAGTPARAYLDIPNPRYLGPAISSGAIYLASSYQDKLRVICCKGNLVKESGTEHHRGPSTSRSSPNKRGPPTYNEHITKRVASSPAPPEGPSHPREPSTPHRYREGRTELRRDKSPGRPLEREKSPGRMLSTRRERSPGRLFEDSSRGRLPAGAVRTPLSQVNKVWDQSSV
Sequence of Ephrin type-A receptor 2 (P29317 whole entry): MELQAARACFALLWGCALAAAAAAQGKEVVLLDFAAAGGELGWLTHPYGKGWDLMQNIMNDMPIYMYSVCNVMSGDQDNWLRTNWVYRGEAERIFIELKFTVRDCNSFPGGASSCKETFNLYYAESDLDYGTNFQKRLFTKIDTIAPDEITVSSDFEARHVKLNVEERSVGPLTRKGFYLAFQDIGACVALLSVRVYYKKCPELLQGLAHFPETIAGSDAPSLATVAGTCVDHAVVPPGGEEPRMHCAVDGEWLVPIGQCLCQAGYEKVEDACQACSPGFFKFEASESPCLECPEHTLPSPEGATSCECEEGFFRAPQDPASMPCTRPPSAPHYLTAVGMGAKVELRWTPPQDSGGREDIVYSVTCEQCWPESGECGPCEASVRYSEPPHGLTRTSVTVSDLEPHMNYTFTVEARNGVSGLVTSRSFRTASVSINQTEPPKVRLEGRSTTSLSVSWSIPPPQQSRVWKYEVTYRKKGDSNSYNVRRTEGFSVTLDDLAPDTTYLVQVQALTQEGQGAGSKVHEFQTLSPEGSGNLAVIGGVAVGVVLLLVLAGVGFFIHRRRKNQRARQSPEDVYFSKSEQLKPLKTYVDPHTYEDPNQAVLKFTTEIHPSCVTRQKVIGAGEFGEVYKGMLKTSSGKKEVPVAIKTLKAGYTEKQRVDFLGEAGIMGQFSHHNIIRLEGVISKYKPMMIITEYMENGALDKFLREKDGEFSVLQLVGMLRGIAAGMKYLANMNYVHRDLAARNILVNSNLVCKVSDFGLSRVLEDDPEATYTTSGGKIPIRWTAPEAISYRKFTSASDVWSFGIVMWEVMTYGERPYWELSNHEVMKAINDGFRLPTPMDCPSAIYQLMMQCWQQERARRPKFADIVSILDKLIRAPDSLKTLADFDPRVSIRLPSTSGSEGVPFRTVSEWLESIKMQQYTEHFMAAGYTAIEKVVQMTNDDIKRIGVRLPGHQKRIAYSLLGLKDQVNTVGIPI

SMILES | Kd (Ephrin type-A receptor 2) | Kd [1] | Kd [2] | Kd [3] | Kd [4] | Kd [5]
CCOc1cc2ncc(C#N)c(Nc3ccc(F)c(Cl)c3)c2cc1NC(=O)/C=C/CN(C)C [PELITINIB] | > 10 µM | > 10 µM | 0.31 µM | > 10 µM | > 10 µM | 
COCC(=O)NC/C=C/c1ccc2ncnc(Nc3ccc(Oc4ccc(C)nc4)c(C)c3)c2c1 [CP-724714] | > 10 µM | > 10 µM | > 10 µM | > 10 µM | > 10 µM | > 10 µM
NC(=O)c1ccc(-c2nc(-c3ccc4c(c3)OCO4)c(-c3ccccn3)[nH]2)cc1 [SB-431542] | > 10 µM | > 10 µM | > 10 µM |  | > 10 µM | > 10 µM
Nc1nc(Nc2ccc(S(N)(=O)=O)cc2)nn1C(=O)c1c(F)cccc1F [JNJ-7706621] | > 10 µM |  | > 10 µM |  |  | > 10 µM
Oc1ccc(-c2nc(-c3ccncc3)c(-c3ccc(F)cc3)[nH]2)cc1 [SB-202190] | > 10 µM | > 10 µM | 0.51 µM | > 10 µM | > 10 µM | > 10 µM
